According to article PMC6562543 (Marine Drugs, 2019):

System: CaV2.2 channels (α1B, α2δ1, and β3)
Assay type: cell-based, rat

With `CSCC[C@@H]1NC(=O)[C@H](CC(C)C)NC(=O)[C@H](CCCNC(=N)N)NC(=O)[C@H](CO)NC(=O)[C@@H]2CSSC[C@@H]3NC(=O)[C@H](CO)NC(=O)CNC(=O)[C@H]([C@@H](C)O)NC(=O)[C@H](CSSC[C@H](N)C(=O)N[C@@H](CCCCN)C(=O)NCC(=O)N[C@@H](CCCCN)C(=O)NCC(=O)N[C@@H](C)C(=O)N[C@@H](CCCCN)C(=O)N2)NC(=O)[C@H](CSSC[C@@H](C(N)=O)NC(=O)[C@H](CCCCN)NC(=O)CNC(=O)[C@H](CO)NC(=O)[C@H](CCCNC(=N)N)NC3=O)NC(=O)[C@H](CC(=O)O)NC(=O)[C@H](Cc2ccc(O)cc2)NC1=O` [MVIIA, ω-Conotoxin MVIIA] the Hill slope was 1.296, the “inhibitory effect on CaV2.2 channel” value (2 µM) was “more than 90%” and the “reduction of ICa amplitude” value (SEM) was 98.24 ± 0.708%.
